Laboratory results taken from patent US20230113398A1, “INEXPENSIVE METAL-FREE ORGANIC REDOX FLOW BATTERY (ORBAT) FOR GRID-SCALE STORAGE” (UNIVERSITY OF SOUTHERN CALIFORNIA, priority 2013, published 2023).
≈ marks a conversion by molar mass, not a printed value.

How the values were obtained:
[1] = Charge/discharge cycling of full ORBAT flow cells; conditions: 25 cm^2 flow cell, 0.2 M solutions, 1 M sulfuric acid, at least 12 cycles
Text: A flow cell was constructed using fuel cell hardware that has graphite end plates (Electrochem Inc.) and an electrode active area of 25 cm^2. The reactant was circulated using peristaltic pumps (Masterflex) at a flow rate of approximately 0.5-1.0 liter min^-1. Membrane electrode assemblies (MEA) needed for the cell were fabricated in house using procedures similar to those previously reported for direct methanol fuel cells. (G. K. S. Prakash, M. C. Smart, Q. J. Wang, A. Atti, V. Pleynet, B. Yang, K. McGrath, G. A. Olah, S. R. Narayanan, W. Chun, T. Valdez, S. Surampudi, J. Fluorine Chemistry, 125, 1217 (2004); the entire disclosure of which is hereby incorporated by reference). Specifically, two sheets of carbon paper (Toray 030- non-teflonized) were coated with an ink containing 0.1 g of Vulcan XC-72 carbon black and 0.3 g of NAFION®. The coated electrodes were hot pressed with a NAFION® 117 membrane to form a MEA. All full cell experiments were carried out at 23° C. Two glass containers served as reservoirs for the solutions of the redox couples. An argon flow was maintained above these solutions to avoid reaction of the redox couples with oxygen. The current-voltage characteristics of the cells were measured at various states of charge. Charge/discharge studies were carried out under constant current conditions. […]

[2] = Solubility
[3] = Rotating disk electrode and cyclic voltammetry on glassy carbon, 1 mM compound in 1 M sulfuric acid; type: physicochemical
Description: Measurement of kinetic parameters and diffusion coefficients was conducted in a three-electrode cell consisting of a rotating glassy carbon disk working electrode, a platinum wire counter electrode, and a mercury/mercuric sulfate reference electrode (E° = +0.65 V). […] The solutions were de-aerated and kept under a blanket of argon gas throughout all the experiments. All measurements were conducted in the potentiodynamic mode (Versastat 300 potentiostat) at a scan rate of 5 mV s^-1 over a range of rotation rates (500 rpm to 3000 rpm). Impedance measurements were also made at each rotation rate. Cyclic voltammetry was conducted on a static glassy carbon electrode at a scan rate of 50 mV s^-1.
Where n is the number of electrons transferred, F, the Faraday constant, A, electrode area, Do, the diffusion coefficient, v, the kinematic viscosity of the solution and C*, the bulk concentration of the reactants. For n = 2, an active electrode area of 0.1925 cm^2, and a kinematic viscosity of the electrolyte of 0.01 cm^2 s^-1, we were able to evalulate the diffusion coefficient from the slope of the straight line plots in FIG. 11D.
To determine the kinetic parameters for the charge-transfer process, namely the rate constant and the apparent transfer coeffcient, the logarithm of the kinetic current (after correction for mass-transport losses) was plotted against the observed overpotentials greater than 100 mV, where the Tafel equation is applicable (Eq. 4 and FIG. 11E).
Where I is the current, Ilim is the limiting current, Iex is the exchange current density, Co and CR are the concentration of the oxidized and reduced species at the surface of the electrode, Co* and CR* are the bulk concentrations of the oxidized and reduced species, α is the transfer coefficient, n is the number of electrons transferred, F is the Faraday constant, E-Erev is the overpotential, R is the gas constant, and T is the temperature. The rate constant, ko , was obtained from the exchange current density (Eq. 5).
Where n is the number of electrons transferred, F, the Faraday constant, A, electrode area, Do, the diffusion coefficient, v, the kinematic viscosity of the solution and C*, the bulk concentration of the reactants. For n = 2, an active electrode area of 0.1925 cm^2, and a kinematic viscosity of the electrolyte of 0.01 cm^2 s^-1, we were able to evalulate the diffusion coefficient from the slope of the straight line plots.
To determine the kinetic parameters for the charge-transfer process, namely the rate constant and the apparent transfer coeffcient, the logarithm of the kinetic current (after correction for mass-transport losses) was plotted against the observed overpotentials greater than 100 mV, where the Tafel equation derived from the Butler-Volmer Equation is applicable : […]
Where I is the current, Ilim is the limiting current, Iex is the exchange current density, Co and CR are the concentration of the oxidized and reduced species at the surface of the electrode, Co* and CR* are the bulk concentrations of the oxidized and reduced species, α is the transfer coefficient, n is the number of electrons transferred, F is the Faraday constant, E-Erev is the overpotential, R is the gas constant, and T is the temperature. The rate constant, ko , was obtained from the exchange current density using the relationship

[4] = Cyclic voltammetry in 1 M potassium hydroxide; type: physicochemical

SMILES: O=C1c2ccc(S(=O)(=O)O)cc2C(=O)c2ccc(S(=O)(=O)O)cc21 [Anthraquinone 2,6-disulfonic acid, anthraquinone-2,6-disulfonic acid]
- charge-discharge cycling stability (capacity change) [1]: charge-discharge cycling stability similar to AQS
- solubility ([2]; Solubility, Table 5): 500 mM (≈ 184 mg/mL)
- solubility ([2]; water, aqueous solubility limit, aqueous): ~500 mM (≈ 184 mg/mL)
- Standard Reduction Potentials: E°(formal) Measured ([3]; 1 M sulfuric acid): 0.19
- kinetic reversibility from cyclic voltammograms ([3]; 1 M sulfuric acid, glassy carbon): less kinetically reversible than AQS
- Diffusion Coefficient, (cm^2 s^-1) ([3]; Table 5, 1 M sulfuric acid, Levich plot): 3.40E-6 cm^2 s^-1
- E½ vs. MSE, Volt ([3]; Table 5, MSE E°=+0.65 V, 1 M sulfuric acid): -0.60 Volt
- Transfer Coefficient, an ([3]; Table 5, Tafel analysis): 0.426
- Exchange Current Density, (A cm^-2) ([3]; Table 5, glassy carbon RDE, 1 M sulfuric acid): 2.97E-6 A cm^-2
- Rate Constant, k° ([3]; Table 5, obtained from exchange current density): 0.000152 cm/s
- Diffusion Coefficient (cm2/sec) ([3]; Table 7): 4.04E-6 cm2/sec
- Exchange Current density (A/cm^2) ([3]; Table 7): 1.81E-6 A/cm^2
- E½ vs. MSE, Volt ([3]; Table 7, 1 M sulfuric acid): -0.58 Volt
- Standard Reduction Potentials: Experimental (E½ values) vs. NHE ([3]; vs. NHE, 1 M sulfuric acid): 0.05
- reversible peak potential vs. MMO [4]: about -0.35 V
